{
  "source": "patent US20240209092A1",
  "about": "“COMBINATION THERAPIES FOR TREATING CANCER” (ADAGENE INC., priority 2021, published 2024)",
  "key": {"[1]": {"tested_on": "Renca murine kidney cancer cells", "assay": "Renca cancer model, TY21580 with Anlotinib", "format": "in vivo, mice", "protocol": "Mice were inoculated subcutaneously with Renca murine kidney cancer cells. […] Anlotinib at 3 mg/kg was p.o. dosed daily for 17 doses."}, "4T1 cancer model": {"tested_on": "4T1 cancer model", "conditions": "Day 35; TY21580 2 mg/kg i.p. biweekly four doses, Docetaxel 10 mg/kg i.v. weekly 3 doses", "quoted_text": "Dosing started when average tumor volume reached about 90 mm^3 (n=8 per group). When the mean tumor volume reached 90 mm^3, the tumor bearing mice were randomized into different treatment groups of eight mice each. […] Docetaxel at 10 mg/kg was i.v. dosed weekly for 3 doses."}, "CT26 cancer model": {"tested_on": "CT26 cancer model", "assay": "CT26 cancer model, TY21580 with Fruquintinib", "format": "in vivo, mice", "protocol": "Dosing started when average tumor volume reached about 120 mm^3 (n=8 per group). […] Fruquintinib at 5 mg/kg was p.o. dosed daily for 3 weeks."}, "[2]": {"tested_on": "EMT6 murine breast cancer cells", "assay": "EMT6 cancer model, TY21580 with Olaparib", "format": "in vivo, mice", "conditions": "Olaparib 50 mg/kg p.o. daily for 21 doses", "protocol": "Mice were inoculated subcutaneously with EMT6 murine breast cancer cells. […] Intraperitoneal administration of TY21580 at 0.1 mg/kg was initiated on a biweekly schedule. Olaparib at 50 mg/kg was p.o. dosed daily for 21 doses."}, "[3]": {"tested_on": "MC38 murine colon tumor cells", "assay": "MC38 cancer model, TY22404 with ADG106", "format": "in vivo, mice", "conditions": "Day 27 post tumor cell inoculation; 5 mg/kg each, i.p. biweekly four doses", "protocol": "FIG. 25 provides the results of TY22404 administered in combination with ADG106 antibody in the MC38 cancer model to assess in vivo antitumor efficacy of the combination treatment. Mice were inoculated subcutaneously with MC38 murine colon tumor cells. […] Intraperitoneal administration of test antibodies was initiated on a biweekly schedule for four doses. Tumor growth inhibition (TGI) relative to the isotype control group was evaluated on Day 27 post tumor cell inoculation."}, "[4]": {"tested_on": "4T1 murine breast cancer cells", "assay": "4T1 cancer model, TY22404 with ADG106", "format": "in vivo, mice", "conditions": "Day 33; 5 mg/kg TY22404 and/or ADG106 i.p. biweekly, four doses", "protocol": "Mice were inoculated subcutaneously with 4T1 murine breast cancer cells. […] Intraperitoneal administration of Vehicle, 5 mg/kg TY22404 or ADG106, or combination of these two agents, was initiated on a biweekly schedule for four doses."}, "[5]": {"tested_on": "B16F10 murine melanoma tumor cells", "assay": "B16F10 melanoma model, ADG106 with TY21580 (FIG. 17)", "format": "in vivo, mice", "conditions": "5 mg/kg each, IP twice a week from tumor inoculation", "protocol": "All antibodies were dosed twice a week."}, "4T1 breast cancer cells": {"tested_on": "4T1 breast cancer cells", "assay": "4T1 breast cancer model, ADG106 with TY21580", "format": "in vivo, BALB/c mice", "conditions": "TY21580 2 mg/kg, ADG106 5 mg/kg, i.p. twice a week for 2 weeks"}, "[6]": {"tested_on": "CT26 murine colon tumor cells", "assay": "CT26 colon cancer model, ADG106 with TY21580 (FIGS. 12A-12B)", "format": "in vivo, mice", "conditions": "Day 19; ADG106 0.2 mg/kg and/or TY21580 0.2 mg/kg, IP twice a week", "protocol": "FIGS. 12A-12B provide the results of ADG106 administered in combination with TY21580 in the mouse CT26 colon cancer model to assess in vivo antitumor efficacy of ADG106 and TY21580 combination treatment. Mice were inoculated subcutaneously with CT26 murine colon tumor cells. […] These groups received either 1 mg/kg isotype control, 0.2 mg/kg ADG106, 0.2 or 1 mg/kg TY21580, or a combination of ADG106 and TY21580 at the same doses by IP injection. All antibodies were dosed twice a week."}, "[7]": {"tested_on": "MC38 murine colon tumor cells", "assay": "MC38 colon cancer model, ADG106 with TY21580 (FIGS. 13A-13B)", "format": "in vivo, mice", "conditions": "Day 33; ADG106 10 mg/kg alone", "protocol": "Mice were inoculated subcutaneously with MC38 murine colon tumor cells. […] These groups received either 10 mg/kg isotype control, 10 mg/kg ADG106, 0.2 or 2 mg/kg TY21580, or a combination of ADG106 and TY21580 at the same doses by IP injection. All antibodies were dosed twice a week for 4 weeks. […] No adverse effects were observed on body weights with these treatments."}, "[8]": {"tested_on": "EMT6 murine breast cancer cells", "assay": "EMT6 cancer model, ADG106 with TY21580", "format": "in vivo, mice", "conditions": "ADG106 0.5 mg/kg, TY21580 0.1 mg/kg, i.p. biweekly", "protocol": "(§1) FIGS. 19A-19B provide the results of ADG106 administered in combination with TY21580 in the EMT6 cancer model to assess in vivo antitumor efficacy of ADG106 and TY21580 combination treatment. Mice were inoculated subcutaneously with EMT6 murine breast cancer cells. […] Intraperitoneal administration of 0.5 mg/kg ADG106 or 0.1 mg/kg TY21580, or combination of these two agents, was initiated on a biweekly schedule."}, "[9]": {"tested_on": "A20 murine B lymphoma cells", "assay": "A20 cancer model, ADG106 with TY21580", "format": "in vivo, mice", "conditions": "ADG106 5 mg/kg, TY21580 0.5 mg/kg, i.p. biweekly, 4 doses", "protocol": "as §1, with “18A-18B” for “19A-19B”, “A20” for “EMT6”, “B lymphoma” for “breast cancer”, “5” for “0.5”, “0.5” for “0.1”, “schedule for 4 doses.” for “schedule.”"}},
  "data": [
    {"compound": "COc1cc2c(Oc3ccc4[nH]c(C)cc4c3F)ccnc2cc1OCC1(N)CC1", "note": "[Anlotinib]", "values": [
      {"measurement": "TGI vs vehicle control", "setting": "[1]; Day 29, Anlotinib 3 mg/kg p.o. daily for 17 doses", "result": 93, "unit": "%"},
      {"measurement": "antitumor effect vs vehicle control, in words", "setting": "[1]; TY21580 5 mg/kg i.p. biweekly four doses, Anlotinib 3 mg/kg p.o. daily", "result": "strong antitumor activity"}
    ]},
    {"compound": "CC(=O)O[C@@]12CO[C@@H]1C[C@H](O)[C@@]1(C)C(=O)[C@H](O)C3=C(C)[C@@H](OC(=O)[C@H](O)[C@@H](NC(=O)OC(C)(C)C)c4ccccc4)C[C@@](O)([C@@H](OC(=O)c4ccccc4)[C@H]21)C3(C)C", "note": "[Docetaxel, reference compound]", "values": [
      {"measurement": "TGI vs vehicle control", "setting": "4T1 cancer model", "result": 38.3, "unit": "%"}
    ]},
    {"compound": "CNC(=O)c1c(C)oc2cc(Oc3ncnc4cc(OC)c(OC)cc34)ccc12", "note": "[Fruquintinib, reference compound]", "values": [
      {"measurement": "antitumor activity vs isotype control, in words", "setting": "CT26 cancer model; TY21580 0.1 mg/kg i.p. biweekly four doses, Fruquintinib 5 mg/kg p.o. daily for 3 weeks", "result": "partial antitumor activity"},
      {"measurement": "complete response (CR)", "setting": "CT26 cancer model; TY21580 0.1 mg/kg, Fruquintinib 5 mg/kg, n=8 per group", "result": "no complete response"}
    ]},
    {"compound": "O=C(c1cc(Cc2n[nH]c(=O)c3ccccc23)ccc1F)N1CCN(C(=O)C2CC2)CC1", "note": "[Olaparib, reference compound]", "values": [
      {"measurement": "antitumor effect vs vehicle control, in words", "setting": "[2]", "result": "no significant antitumor effect"}
    ]},
    {"compound": "ADG106: anti-CD137 antibody, heavy chain SEQ ID NO: 240, light chain SEQ ID NO: 241", "values": [
      {"measurement": "Tumor growth inhibition (TGI) relative to isotype control", "setting": "[3]", "result": 21, "unit": "%"},
      {"measurement": "TGI vs vehicle control", "setting": "[4]", "result": 10, "unit": "%"},
      {"measurement": "antitumor activity vs isotype control, in words", "setting": "[5]", "result": "did not inhibit tumor growth"},
      {"measurement": "anti-tumor activity vs isotype control, in words", "setting": "4T1 breast cancer cells", "result": "showed anti-tumor activity"},
      {"measurement": "TGI vs isotype control", "setting": "[6]", "result": 47, "unit": "%"},
      {"measurement": "tumor growth inhibition, in words", "setting": "[7]", "result": "did not inhibit tumor growth"},
      {"measurement": "antitumor activity vs vehicle control, in words", "setting": "[8]", "result": "significant antitumor activity"},
      {"measurement": "antitumor activity vs vehicle control, in words", "setting": "[9]", "result": "partial antitumor activity"}
    ]}
  ]
}
